pEC50: −log10 of the molar value. Where a name gives a salt, the structure may show the parent alone.
tested on: HBV; conditions: Hepatitis B virus, HePAD38, 144 h, read-out: Cell Activity (EC50)

| SMILES | pEC50 |
| --- | --- |
| O=C(c1cc2ccccc2[nH]1)N1CCn2nc(NC3CCOC3)cc2C1 (centres unmarked) [Example 1, 5-(1H-indole-2-carbonyl)-N-(oxolan-3-yl)-4H,5H,6H,7H-pyrazolo[1,5-a]pyrazin-2-amine] | 5.00 to 6.00 |
| O=C(c1cc2ccccc2[nH]1)N1CCn2nc(N[C@H]3CC[C@H](O)CC3)cc2C1 [Example 2, (1r,4r)-4-{[5-(1H-indole-2-carbonyl)-4H,5H,6H,7H-pyrazolo[1,5-a]pyrazin-2-yl]amino}cyclohexan-1-ol] | > 6.00 |
| O=C(c1cc2c(Cl)cccc2[nH]1)N1CCn2nc(NC3CCC(O)CC3)cc2C1 (centres unmarked) [Example 3, 4-{[5-(4-chloro-1H-indole-2-carbonyl)-4H,5H,6H,7H-pyrazolo[1,5-a]pyrazin-2-yl]amino}cyclohexan-1-ol] | > 6.00 |
| O=C(Nc1cc2n(n1)CCN(C(=O)c1cc3ccccc3[nH]1)C2)C1CNC1 [Example 4, N-[5-(1H-indole-2-carbonyl)-4H,5H,6H,7H-pyrazolo[1,5-a]pyrazin-2-yl]azetidine-3-carboxamide Hydrochloride] | 5.00 to 6.00 |
| O=C(c1cc2ccccc2[nH]1)N1CCn2nc(NS(=O)(=O)C3CC3)cc2C1 [Example 5, N-[5-(1H-indole-2-carbonyl)-4H,5H,6H,7H-pyrazolo[1,5-a]pyrazin-2-yl]cyclopropanesulfonamide] | > 6.00 |
| CC(C)(C)OC(=O)N1CC(C(=O)Nc2cc3n(n2)CCN(C(=O)c2cc4ccccc4[nH]2)C3)C1 [Example 7, tert-butyl 3-{[5-(1H-indole-2-carbonyl)-4H,5H,6H,7H-pyrazolo[1,5-a]pyrazin-2-yl]carbamoyl}azetidine-1-carboxylate] | > 6.00 |
| CS(=O)(=O)Nc1cc2n(n1)CCN(C(=O)c1cc3ccccc3[nH]1)C2 [Example 8, N-[5-(1H-indole-2-carbonyl)-4H,5H,6H,7H-pyrazolo[1,5-a]pyrazin-2-yl]methanesulfonamide] | > 6.00 |
| CC1Cn2nc(N)cc2CN1C(=O)c1cc2c(Cl)cccc2[nH]1 (centres unmarked) [Example 9, 5-(4-chloro-1H-indole-2-carbonyl)-6-methyl-4H,5H,6H,7H-pyrazolo[15-a]pyrazin-2-amine] | > 6.00 |
| CC1Cn2nc(NC(=O)C3CCOC3)cc2CN1C(=O)c1cc2ccccc2[nH]1 (centres unmarked) [Example 10, N-[5-(1H-indole-2-carbonyl)-6-methyl-4H,5H, 6H,7H-pyrazolo[1,5-a]pyrazin-2-yl]oxolane-3-carboxamide] | > 6.00 |
| CC1Cn2nc(NC(=O)C3CCOC3)cc2CN1C(=O)c1cc2c(Cl)cccc2[nH]1 (centres unmarked) [Example 11, N-[5-(4-chloro-1H-indole-2-carbonyl)-6-methyl-4H,5H,6H,7H-pyrazolo[1,5-a]pyrazin-2-yl]oxolane-3-carboxamide] | > 6.00 |
| CC1Cn2nc(NCC3CCOC3)cc2CN1C(=O)c1cc2ccccc2[nH]1 (centres unmarked) [Example 12, 5-(1H-indole-2-carbonyl)-6-methyl-N-[(oxolan-3-yl)methyl]-4H,5H,6H,7H-pyrazolo[1,5-a]pyrazin-2-amine] | > 6.00 |
| CC1Cn2nc(NCC3CCOC3)cc2CN1C(=O)c1cc2c(Cl)cccc2[nH]1 (centres unmarked) [Example 13, 5-(4-chloro-1H-indole-2-carbonyl)-6-methyl-N-[(oxolan-3-yl)methyl]-4H,5H,6H,7H-pyrazolo[1,5-a]pyrazin-2-amine] | > 6.00 |
| CC(=O)Nc1cc2n(n1)CCN(C(=O)c1cc3ccccc3[nH]1)C2 [Example 14, N-[5-(1H-indole-2-carbonyl)-4H,5H,6H,7H-pyrazolo[1,5-a]pyrazin-2-yl]acetamide] | > 6.00 |
| O=C(c1cc2ccccc2[nH]1)N1CCn2nc(NCC3CCOCC3)cc2C1 [Example 15, 5-(1H-indole-2-carbonyl)-N-[(oxan-4-yl)methyl]-4H,5H,6H,7H-pyrazolo[1,5-a]pyrazin-2-amine] | > 6.00 |
| CC1Cn2nc(N)cc2CN1C(=O)c1cc2ccccc2[nH]1 (centres unmarked) [Example 16, 5-(1H-indole-2-carbonyl)-6-methyl-4H,5H,6H,7H-pyrazolo[1,5-a]pyrazin-2-amine] | > 6.00 |
| CCc1cccc2[nH]c(C(=O)N3CCn4nc(NCC5CCOC5)cc4C3)cc12 (centres unmarked) [Example 17, 5-(4-ethyl-1H-indole-2-carbonyl)-N-[(oxolan-3-yl)methyl]-4H,5H,6H,7H-pyrazolo[1,5-a]pyrazin-2-amine] | > 6.00 |
| O=C(Nc1cc2n(n1)CCN(C(=O)c1cc3ccccc3[nH]1)C2)C1CCOCC1 [Example 18, N-[5-(1H-indole-2-carbonyl)-4H,5H,6H,7H-pyrazolo[1,5-a]pyrazin-2-yl]oxane-4-carboxamide] | > 6.00 |
| O=C(Nc1cc2n(n1)CCN(C(=O)c1cc3c(Cl)cccc3[nH]1)C2)C1CCOC1 (centres unmarked) [Example 19, N-[5-(4-chloro-1H-indole-2-carbonyl)-4H,5H,6H,7H-pyrazolo[1,5-a]pyrazin-2-yl]oxolane-3-carboxamide] | > 6.00 |
| O=C(Nc1cc2n(n1)CCN(C(=O)c1cc3c(Cl)c(F)ccc3[nH]1)C2)C1CCOC1 (centres unmarked) [Example 20, N-[5-(4-chloro-5-fluoro-1H-indole-2-carbonyl)-4H,5H,6H,7H-pyrazolo[1,5-a]pyrazin-2-yl]oxolane-3-carboxamide] | > 6.00 |

| SMILES | pEC50 |
| --- | --- |
| O=C(Nc1cc2n(n1)CCN(C(=O)c1cc3c(Cl)cc(F)cc3[nH]1)C2)C1CCOC1 (centres unmarked) [Example 21, N-[5-(4-chloro-6-fluoro-1H-indole-2-carbonyl)-4H,5H,6H,7H-pyrazolo[1,5-a]pyrazin-2-yl]oxolane-3-carboxamide] | > 6.00 |
| O=C(Nc1cc2n(n1)CCN(C(=O)c1cc3c(F)cc(F)cc3[nH]1)C2)C1CCOC1 (centres unmarked) [Example 22, N-[5-(4,6-difluoro-1H-indole-2-carbonyl)-4H,5H,6H,7H-pyrazolo[1,5-a]pyrazin-2-yl]oxolane-3-carboxamide] | > 6.00 |
| CCc1cc(F)cc2[nH]c(C(=O)N3CCn4nc(NC(=O)C5CCOC5)cc4C3)cc12 (centres unmarked) [Example 23, N-[5-(4-ethyl-6-fluoro-1H-indole-2-carbonyl)-4H,5H,6H,7H-pyrazolo[1,5-a]pyrazin-2-yl]oxolane-3-carboxamide] | > 6.00 |
| CCc1cccc2[nH]c(C(=O)N3CCn4nc(NC(=O)C5CCOC5)cc4C3)cc12 (centres unmarked) [Example 24, N-[5-(4-ethyl-1H-indole-2-carbonyl)-4H,5H,6H,7H-pyrazolo[1,5-a]pyrazin-2-yl]oxolane-3-carboxamide] | > 6.00 |
| O=C(c1cc2c(Cl)cccc2[nH]1)N1CCn2nc(NCC3CCOC3)cc2C1 (centres unmarked) [Example 26, 5-(4-chloro-1H-indole-2-carbonyl)-N-[(oxolan-3-yl)methyl]-4H,5H,6H,7H-pyrazolo[1,5-a]pyrazin-2-amine] | > 6.00 |
| O=C(c1cc2c(Cl)cc(F)cc2[nH]1)N1CCn2nc(NCC3CCOC3)cc2C1 (centres unmarked) [Example 27, 5-(4-chloro-6-fluoro-1H-indole-2-carbonyl)-N-[(oxolan-3-yl)methyl]-4H,5H,6H,7H-pyrazolo[1,5-a]pyrazin-2-amine] | > 6.00 |
| O=C(c1cc2c(F)cc(F)cc2[nH]1)N1CCn2nc(NCC3CCOC3)cc2C1 (centres unmarked) [Example 28, 5-(4,6-difluoro-1H-indole-2-carbonyl)-N-[(oxolan-3-yl)methyl]-4H,5H,6H,7H-pyrazolo[1,5-a]pyrazin-2-amine] | > 6.00 |
| O=C(Nc1cc2n(n1)CCN(C(=O)c1cc3ccccc3[nH]1)C2)C1CCOC1 (centres unmarked) [Example 30, N-[5-(1H-indole-2-carbonyl)-4H,5H,6H,7H-pyrazolo[1,5-a]pyrazin-2-yl]oxolane-3-carboxamide] | > 6.00 |
| O=C(c1cc2ccccc2[nH]1)N1CCn2nc(NCC3CCOC3)cc2C1 (centres unmarked) [Example 31, 5-(1H-indole-2-carbonyl)-N-[(oxolan-3-yl)methyl]-4H,5H,6H,7H-pyrazolo[1,5-a]pyrazin-2-amine] | > 6.00 |
| Nc1cc2n(n1)CCN(C(=O)c1cc3c(Cl)cccc3[nH]1)C2 [Example 32, 5-(4-chloro-1H-indole-2-carbonyl)-4H,5H,6H,7H-pyrazolo[1,5-a]pyrazin-2-amine] | > 6.00 |
| Nc1cc2n(n1)CCN(C(=O)c1cc3c(F)cc(F)cc3[nH]1)C2 [Example 33, 5-(4,6-difluoro-1H-indole-2-carbonyl)-4H,5H,6H,7H-pyrazolo[1,5-a]pyrazin-2-amine] | > 6.00 |
| Nc1cc2n(n1)CCN(C(=O)c1cc3ccccc3[nH]1)C2 [Example 34, 5-(1H-indole-2-carbonyl)-4H,5H, 6H,7H-pyrazolo[1,5-a]pyrazin-2-amine] | > 6.00 |
| O=C(c1cc2c(F)cc(F)cc2[nH]1)N1CCn2nc(NS(=O)(=O)C3CC3)cc2C1 [Example 35, N-[5-(4,6-difluoro-1H-indole-2-carbonyl)-4H,5H,6H,7H-pyrazolo[1,5-a]pyrazin-2-yl]cyclopropanesulfonamide] | > 6.00 |
| O=C(c1cc2c(Cl)c(F)ccc2[nH]1)N1CCn2nc(NS(=O)(=O)C3CC3)cc2C1 [Example 36, N-[5-(4-chloro-5-fluoro-1H-indole-2-carbonyl)-4H,5H,6H,7H-pyrazolo[1,5-a]pyrazin-2-yl]cyclopropanesulfonamide] | > 6.00 |
| O=C(c1cc2c(Cl)cccc2[nH]1)N1CCn2nc(NS(=O)(=O)C3CC3)cc2C1 [Example 37, N-[5-(4-chloro-1H-indole-2-carbonyl)-4H,5H,6H,7H-pyrazolo[1,5-a]pyrazin-2-yl]cyclopropanesulfonamide] | > 6.00 |
| O=C(c1cc2c(Cl)cc(F)cc2[nH]1)N1CCn2nc(NS(=O)(=O)C3CC3)cc2C1 [Example 38, N-[5-(4-chloro-6-fluoro-1H-indole-2-carbonyl)-4H,5H,6H,7H-pyrazolo[1,5-a]pyrazin-2-yl]cyclopropanesulfonamide] | > 6.00 |
| CCc1cc(F)cc2[nH]c(C(=O)N3CCn4nc(NS(=O)(=O)C5CC5)cc4C3)cc12 [Example 39, N-[5-(4-ethyl-6-fluoro-1H-indole-2-carbonyl)-4H,5H,6H,7H-pyrazolo[1,5-a]pyrazin-2-yl]cyclopropanesulfonamide] | > 6.00 |
| CCc1cccc2[nH]c(C(=O)N3CCn4nc(NS(=O)(=O)C5CC5)cc4C3)cc12 [Example 40, N-[5-(4-ethyl-1H-indole-2-carbonyl)-4H,5H,6H,7H-pyrazolo[1,5-a]pyrazin-2-yl]cyclopropanesulfonamide] | > 6.00 |
| O=C(Nc1cc2n(n1)CCN(C(=O)c1cc3ccccc3[nH]1)C2)C1CCNCC1 [Example 41, N-[5-(1H-indole-2-carbonyl)-4H,5H,6H,7H-pyrazolo[1,5-a]pyrazin-2-yl]piperidine-4-carboxamide Hydrochloride] | > 6.00 |

Reference: US20220081444A1, “6,7-DIHYDRO-4H-PYRAZOLO[1,5-A]PYRAZINE INDOLE-2-CARBOXAMIDES ACTIVE AGAINST THE HEPATITIS B VIRUS (HBV)” (AiCuris GmbH & Co. KG, priority 2018, published 2022)
